Reference: patent US5571836A, “Viral attachment inhibitors” (priority 1995, dated 1996)
Where a name gives a salt, the structure may show the parent alone.

Tests used:
[1] = test system: influenza virus Victoria/3/75; assay: Fetuin binding inhibition assay, influenza virus Victoria/3/75; conditions: for A^i (absorbance): 492 nm
[2] = test system: influenza virus USSR/3/85; assay: Fetuin binding inhibition assay, influenza virus USSR/3/85; conditions: for A^i (absorbance): 492 nm
[3] = test system: influenza virus England/321/77; assay: Fetuin binding inhibition assay, influenza virus England/321/77; conditions: for A^i (absorbance): 492 nm
[4] = format: physicochemical; conditions: control solutions without enzyme
Description: (§1) Compound (IV) was incubated at 37° C. with Vibrio cholerae neuraminidase (450 U/ml) in 0.1M acetate buffer, pH 5.6, containing 0.9% NaCi and 0.1% CaCl2. Neuraminidase cleavage was determined on aliquots taken at intervals by TLC analysis (Merck silica gel plates in propanol/ethanol/25% aqueous ammonia, 2:2:1). Spots were developed by charring the plates with 3% H3 PO4 at 150° C. and quantitated densitometrically. The results are depicted in The FIGURE (v).

[5] = test system: influenza virus Taiwan/1/86; assay: Fetuin binding inhibition assay, influenza virus Taiwan/1/86; conditions: for A^i (absorbance): 492 nm
[6] = test system: influenza virus Chile/1/83; assay: Fetuin binding inhibition assay, influenza virus Chile/1/83; conditions: for A^i (absorbance): 492 nm
[7] = test system: influenza virus Philippines/2/82; assay: Fetuin binding inhibition assay, influenza virus Philippines/2/82; conditions: for A^i (absorbance): 492 nm
[8] = target: Vibrio cholerae neuraminidase (Vibrio cholerae, UniProt P0C6E9); assay: Neuraminidase cleavage (resistance), TLC analysis; format: biochemical; conditions: 37° C., 450 U/ml, pH 5.6; compared with compound (IV)
Description: as §1

[9] = test system: influenza virus X-31; assay: Fetuin binding inhibition assay, influenza virus X-31; conditions: for A^i (absorbance): 492 nm
[10] = test system: influenza virus Texas/1/77; assay: Fetuin binding inhibition assay, influenza virus Texas/1/77; conditions: for A^i (absorbance): 492 nm
[11] = test system: influenza virus Port Chalmers/1/73; assay: Fetuin binding inhibition assay, influenza virus Port Chalmers/1/73; conditions: for A^i (absorbance): 492 nm
[12] = test system: influenza virus USSR/2/85; assay: Fetuin binding inhibition assay, influenza virus USSR/2/85; conditions: for A^i (absorbance): 492 nm
[13] = test system: influenza virus B/USSR/100/83; assay: Fetuin binding inhibition assay, influenza virus B/USSR/100/83; conditions: for A^i (absorbance): 492 nm
[14] = test system: influenza virus USSR/90/77; assay: Fetuin binding inhibition assay, influenza virus USSR/90/77; conditions: for A^i (absorbance): 492 nm
[15] = test system: influenza virus B/Hong Kong/8/73; assay: Fetuin binding inhibition assay, influenza virus B/Hong Kong/8/73; conditions: for A^i (absorbance): 492 nm
[16] = test system: influenza virus B/Singapore/222/79; assay: Fetuin binding inhibition assay, influenza virus B/Singapore/222/79; conditions: for A^i (absorbance): 492 nm
[17] = test system: influenza virus hemagglutinin; conditions: prior art; cited from earlier work
[18] = test system: neuraminidase; conditions: prior art; cited from earlier work
[19] = Stability of compound (observation); format: physicochemical; conditions: must be used immediately in coupling with polymer

Chain of Vibrio cholerae neuraminidase (P0C6E9 25-781): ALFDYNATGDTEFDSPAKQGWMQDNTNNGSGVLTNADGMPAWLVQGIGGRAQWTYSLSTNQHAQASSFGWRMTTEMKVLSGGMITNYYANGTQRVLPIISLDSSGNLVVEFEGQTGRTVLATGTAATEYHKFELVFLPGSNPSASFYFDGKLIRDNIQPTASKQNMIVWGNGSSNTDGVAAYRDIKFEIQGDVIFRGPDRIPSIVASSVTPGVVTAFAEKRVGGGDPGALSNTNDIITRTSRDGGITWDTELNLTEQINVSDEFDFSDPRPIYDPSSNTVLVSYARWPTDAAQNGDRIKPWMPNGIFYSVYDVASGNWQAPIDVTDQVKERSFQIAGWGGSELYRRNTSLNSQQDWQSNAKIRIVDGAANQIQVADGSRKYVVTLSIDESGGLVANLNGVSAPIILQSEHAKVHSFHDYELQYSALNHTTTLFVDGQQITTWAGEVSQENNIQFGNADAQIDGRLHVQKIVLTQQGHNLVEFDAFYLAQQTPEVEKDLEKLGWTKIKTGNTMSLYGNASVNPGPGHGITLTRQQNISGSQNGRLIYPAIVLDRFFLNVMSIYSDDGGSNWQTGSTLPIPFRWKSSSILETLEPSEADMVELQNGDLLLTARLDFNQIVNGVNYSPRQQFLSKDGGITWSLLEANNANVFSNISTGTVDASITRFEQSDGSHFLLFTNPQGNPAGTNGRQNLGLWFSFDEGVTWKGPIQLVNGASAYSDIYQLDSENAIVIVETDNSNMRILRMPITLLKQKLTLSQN

CC(=O)NC1C(O)CC(OCc2ccccc2)(C(=O)O)OC1C(O)C(O)CO [IX, benzyl 5-acetamido-3,5-dideoxy-α-D-glycero-D-galacto-nonulopyranosidonic acid (sodium salt), reference compound]
-lgKd(i) ([1]; 1.60 mM sialoside): 4.2
A^i (absorbance) ([1]; 1.60 mM sialoside): 0.09
-lgKd(i) ([1]; .05 mM sialoside): 4.0
A^i (absorbance) ([1]; .05 mM sialoside): 0.64
-lgKd(i) ([1]; .10 mM sialoside): 4.0
A^i (absorbance) ([1]; .10 mM sialoside): 0.58
-lgKd(i) ([1]; .20 mM sialoside): 4.05
A^i (absorbance) ([1]; .20 mM sialoside): 0.45
-lgKd(i) ([1]; .40 mM sialoside): 4.1
A^i (absorbance) ([1]; .40 mM sialoside): 0.31
-lgKd(i) ([1]; .80 mM sialoside): 4.2
A^i (absorbance) ([1]; .80 mM sialoside): 0.16
-lgKd ± SD ([1]; mean over concentrations): 4.1 ± 0.08
-lgKd(i) ([2]; 1.28 mM sialoside): 4.5
A^i (absorbance) ([2]; 1.28 mM sialoside): 0.06
-lgKd(i) ([2]; .08 mM sialoside): 4.5
A^i (absorbance) ([2]; .08 mM sialoside): 0.5
-lgKd(i) ([2]; .16 mM sialoside): 4.6
A^i (absorbance) ([2]; .16 mM sialoside): 0.28
-lgKd(i) ([2]; .32 mM sialoside): 4.6
A^i (absorbance) ([2]; .32 mM sialoside): 0.16
-lgKd(i) ([2]; .64 mM sialoside): 4.6
A^i (absorbance) ([2]; .64 mM sialoside): 0.08
-lgKd ± SD ([2]; mean over concentrations): 4.6 ± 0.05
-lgKd(i) ([3]; .08 mM sialoside): 4.4
A^i (absorbance) ([3]; .08 mM sialoside): 0.49
-lgKd(i) ([3]; .16 mM sialoside): 4.6
A^i (absorbance) ([3]; .16 mM sialoside): 0.21
-lgKd(i) ([3]; .32 mM sialoside): 4.5
A^i (absorbance) ([3]; .32 mM sialoside): 0.13
-lgKd(i) ([3]; .64 mM sialoside): 4.8
A^i (absorbance) ([3]; .64 mM sialoside): 0.04
-lgKd ± SD ([3]; mean over concentrations): 4.5 ± 0.1
Stability in the absence of enzyme [4]: at least 23 hours
-lgKd(i) ([5]; 1.28 mM sialoside): 3.0
A^i (absorbance) ([5]; 1.28 mM sialoside): 0.22
-lgKd(i) ([5]; .32 mM sialoside): 2.8
A^i (absorbance) ([5]; .32 mM sialoside): 0.36
-lgKd(i) ([5]; .64 mM sialoside): 2.9
A^i (absorbance) ([5]; .64 mM sialoside): 0.31
-lgKd ± SD ([5]; mean over concentrations): 2.9 ± 0.1
-lgKd(i) ([6]; 1.28 mM sialoside): 3.4
A^i (absorbance) ([6]; 1.28 mM sialoside): 0.42
-lgKd(i) ([6]; .16 mM sialoside): 3.2
A^i (absorbance) ([6]; .16 mM sialoside): 0.9
-lgKd(i) ([6]; .32 mM sialoside): 3.4
A^i (absorbance) ([6]; .32 mM sialoside): 0.72
-lgKd(i) ([6]; .64 mM sialoside): 3.3
A^i (absorbance) ([6]; .64 mM sialoside): 0.62
-lgKd ± SD ([6]; mean over concentrations): 3.3 ± 0.1
-lgKd(i) ([7]; .05 mM sialoside): 5.2
A^i (absorbance) ([7]; .05 mM sialoside): 0.35
-lgKd(i) ([7]; .10 mM sialoside): 5.3
A^i (absorbance) ([7]; .10 mM sialoside): 0.18
-lgKd(i) ([7]; .20 mM sialoside): 5.4
A^i (absorbance) ([7]; .20 mM sialoside): 0.08
-lgKd(i) ([7]; .40 mM sialoside): 5.4
A^i (absorbance) ([7]; .40 mM sialoside): 0.05
-lgKd(i) ([7]; .80 mM sialoside): 5.3
A^i (absorbance) ([7]; .80 mM sialoside): 0.03
-lgKd ± SD ([7]; mean over concentrations): 5.3 ± 0.08
Neuraminidase cleavage [8]: cleaved much more rapidly
-lgKd(i) ([9]; 1.28 mM sialoside): 2.8
A^i (absorbance) ([9]; 1.28 mM sialoside): 0.66
-lgKd(i) ([9]; .32 mM sialoside): 3.1
A^i (absorbance) ([9]; .32 mM sialoside): 0.86
-lgKd(i) ([9]; .64 mM sialoside): 2.7
A^i (absorbance) ([9]; .64 mM sialoside): 0.84
-lgKd ± SD ([9]; mean over concentrations): 2.9 ± 0.21
-lgKd(i) ([10]; 1.60 mM sialoside): 5.1
A^i (absorbance) ([10]; 1.60 mM sialoside): 0.04
-lgKd(i) ([10]; .05 mM sialoside): 4.8
A^i (absorbance) ([10]; .05 mM sialoside): 0.77
-lgKd(i) ([10]; .10 mM sialoside): 4.9
A^i (absorbance) ([10]; .10 mM sialoside): 0.55
-lgKd(i) ([10]; .20 mM sialoside): 5.0
A^i (absorbance) ([10]; .20 mM sialoside): 0.30
-lgKd(i) ([10]; .40 mM sialoside): 4.9
A^i (absorbance) ([10]; .40 mM sialoside): 0.20
-lgKd(i) ([10]; .80 mM sialoside): 5.0
A^i (absorbance) ([10]; .80 mM sialoside): 0.09
-lgKd ± SD ([10]; mean over concentrations): 5.0 ± 0.1
-lgKd(i) ([11]; 1.60 mM sialoside): 3.4
A^i (absorbance) ([11]; 1.60 mM sialoside): 0.20
-lgKd(i) ([11]; .05 mM sialoside): 3.7
A^i (absorbance) ([11]; .05 mM sialoside): 0.51
-lgKd(i) ([11]; .10 mM sialoside): 4.1
A^i (absorbance) ([11]; .10 mM sialoside): 0.36
-lgKd(i) ([11]; .20 mM sialoside): 3.8
A^i (absorbance) ([11]; .20 mM sialoside): 0.36
-lgKd(i) ([11]; .40 mM sialoside): 3.6
A^i (absorbance) ([11]; .40 mM sialoside): 0.33
-lgKd(i) ([11]; .80 mM sialoside): 3.5
A^i (absorbance) ([11]; .80 mM sialoside): 0.28
-lgKd ± SD ([11]; mean over concentrations): 3.7 ± 0.3
-lgKd(i) ([12]; 1.28 mM sialoside): 3.5
A^i (absorbance) ([12]; 1.28 mM sialoside): 0.12
-lgKd(i) ([12]; .32 mM sialoside): 3.1
A^i (absorbance) ([12]; .32 mM sialoside): 0.32
-lgKd(i) ([12]; .64 mM sialoside): 3.3
A^i (absorbance) ([12]; .64 mM sialoside): 0.25
-lgKd ± SD ([12]; mean over concentrations): 3.3 ± 0.2
-lgKd(i) ([13]; 1.28 mM sialoside): 3.1
A^i (absorbance) ([13]; 1.28 mM sialoside): 0.9
-lgKd(i) ([13]; .16 mM sialoside): 3.6
A^i (absorbance) ([13]; .16 mM sialoside): 1.2
-lgKd(i) ([13]; .32 mM sialoside): 3.6
A^i (absorbance) ([13]; .32 mM sialoside): 1.0
-lgKd ± SD ([13]; mean over concentrations): 3.4 ± 0.3
-lgKd(i) ([14]; 1.28 mM sialoside): 2.8
A^i (absorbance) ([14]; 1.28 mM sialoside): 0.6
-lgKd(i) ([14]; .16 mM sialoside): 3.1
A^i (absorbance) ([14]; .16 mM sialoside): 0.8
-lgKd(i) ([14]; .32 mM sialoside): 3.1
A^i (absorbance) ([14]; .32 mM sialoside): 0.7
-lgKd ± SD ([14]; mean over concentrations): 3.0 ± 0.17
-lgKd(i) ([15]; 1.28 mM sialoside): 3.0
A^i (absorbance) ([15]; 1.28 mM sialoside): 0.32
-lgKd(i) ([15]; .32 mM sialoside): 2.7
A^i (absorbance) ([15]; .32 mM sialoside): 0.55
-lgKd(i) ([15]; .64 mM sialoside): 2.8
A^i (absorbance) ([15]; .64 mM sialoside): 0.48
-lgKd ± SD ([15]; mean over concentrations): 2.8 ± 0.15
-lgKd(i) ([16]; 1.28 mM sialoside): 3.4
A^i (absorbance) ([16]; 1.28 mM sialoside): 0.39
-lgKd(i) ([16]; .16 mM sialoside): 3.4
A^i (absorbance) ([16]; .16 mM sialoside): 0.85
-lgKd(i) ([16]; .32 mM sialoside): 3.3
A^i (absorbance) ([16]; .32 mM sialoside): 0.76
-lgKd(i) ([16]; .64 mM sialoside): 3.2
A^i (absorbance) ([16]; .64 mM sialoside): 0.65
-lgKd ± SD ([16]; mean over concentrations): 3.3 ± 0.1
Inhibition of attachment [17]: shows greater inhibition of attachment than 5-acetyl neuraminic acid itself
Susceptibility to neuraminidase cleavage [18]: not immune to this cleavage

CC(=S)NC1C(O)CC(OCc2ccc(NC(=S)CN)cc2)(C(=O)O)OC1C(O)C(O)CO [VIII, p-thioglycylamidobenzyl 3,5-dideoxy-5-thioacetamido-α-D-glycero-D-galacto-nonulopyranosidonic acid]
Stability [19]: unstable
